System: Coccinella septempunctata
Experiment: Wind tunnel experiment: behavioral responses of ladybugs to the attractant
Assay type: in vivo
Details: for Proportion of Knocking Filter Paper, Female Proportion / Proportion of Passing Through ½ of Wind Tunnel, Female Proportion / Proportion of Take Off, Female Proportion: female ladybugs; for Proportion of Knocking Filter Paper, Female Proportion / Proportion of Knocking Filter Paper, Male Proportion: number of insects knocking filter paper/total number of insects; for Proportion of Knocking Filter Paper, Female Proportion / Proportion of Passing Through ½ of Wind Tunnel, Female Proportion / Proportion of Take Off, Female Proportion / Proportion of Knocking Filter Paper, Male Proportion / Proportion of Passing Through ½ of Wind Tunnel, Male Proportion / Proportion of Take Off, Male Proportion: 30 min, 28° C., wind speed 0.3 m/s; for Proportion of Passing Through ½ of Wind Tunnel, Female Proportion / Proportion of Passing Through ½ of Wind Tunnel, Male Proportion: number of insects passing through ½ of wind tunnel/total number of insects; for Proportion of Take Off, Female Proportion / Proportion of Take Off, Male Proportion: number of take-off insects/total number of insects; for Proportion of Knocking Filter Paper, Male Proportion / Proportion of Passing Through ½ of Wind Tunnel, Male Proportion / Proportion of Take Off, Male Proportion: male ladybugs; for Attraction of ladybugs in the wind tunnel, result in words: summary of wind tunnel results
Description: (§1) Wind tunnel experiments were performed using a wind tunnel device to determine the behavioral responses of ladybugs to the attractant. The wind tunnel device is 90 cm long, 35 cm wide and 35 cm high. The desired ladybugs were put into a glass tube 30 minutes before the test, and both the ends of the glass tube were sealed with absorbent cotton to adapt the ladybugs to the environment in the wind tunnel. The filter paper-loaded compound was placed on the upper air outlet, and the wind speed in the wind tunnel was 0.3 m/s. The whole process of bioassay was carried out at 28° C. The glass tube was placed at the end of the lower air outlet of the wind tunnel. Timing started and lasted for 30 min. The numbers of take-offs, directional flights, and proximity to attractant sources were recorded and their relative proportions were calculated. The experimental method was referred to the wind tunnel experiment of Binyameen M et al (Journal of Chemical Ecology, 2013, 39(10):1273-1283).
The behavioral responses of ladybugs to the attractants in Comparative Examples 1-5 were measured by using a wind tunnel device (same conditions as in Example 1).
as §1, with “to the attractants. The wind” for “to the attractant. The wind”, “glass tube with the ladybugs was placed” for “glass tube was placed”, “min. The proportions of take-offs,” for “min. The numbers of take-offs,”, “sources were recorded.” for “sources were recorded and their relative proportions were calculated. The experimental method was referred to the wind tunnel experiment of Binyameen M et al (Journal of Chemical Ecology, 2013, 39(10):1273-1283).”
Wind tunnel experiments were performed using a wind tunnel device to determine the behavioral responses of ladybugs to the attractants of Example 3 and Comparative Examples 6-10.
Wind tunnel experiments were performed using a wind tunnel device to determine the behavioral responses of ladybugs to the attractants of Example 4 and Comparative Examples11-20.
Note: Coccinella septempunctata were used in the above wind tunnel experiments; when the Rodolia limbata, Harmonia axyridis, Propylaea japonica and Chilocorus rubidus hope were taken as the experiment objects, the results (trend) were basically the same as that of Coccinella septempunctata.

| SMILES | Proportion of Knocking Filter Paper, Female Proportion [%] | Proportion of Passing Through ½ of Wind Tunnel, Female Proportion [%] | Proportion of Take Off, Female Proportion [%] | Proportion of Knocking Filter Paper, Male Proportion [%] | Proportion of Passing Through ½ of Wind Tunnel, Male Proportion [%] | Proportion of Take Off, Male Proportion | Attraction of ladybugs in the wind tunnel, result in words |
| --- | --- | --- | --- | --- | --- | --- | --- |
| CCC/C=C/C(=O)O [Comparative Example 18, trans-2-hexenoic acid] | 10 | 53.3 | 11.7 | 8.3 | 46.7 | 20% | poor attraction to female and male ladybugs |
| CC(C)CC=O [Comparative Example 19, isovaleraldehyde] | 11.7 | 58.3 | 13.3 | 15 | 56.7 | 10% | poor attraction to female and male ladybugs |
| C=CC1(C)CCC(C(=C)C)CC1C(=C)C (stereo not shown) [Comparative Example 16, 1-vinyl-1-methyl-2,4-di (propyl-1-ene-2-yl) cyclohexane] | 0 | 13.3 | 0 | 11.7 | 73.3 | 21.7%^ | better effect on attracting male ladybugs but worse than Example 4 |
| CC(C)=CCC/C(C)=C/CC/C(C)=C/CC/C=C(\C)CC/C=C(\C)CCC=C(C)C [Comparative Example 20, squalene] | 13.3 | 61.7 | 20 | 6.7 | 66.7 | 26.8%^ | number of insects knocking filter paper was significant less that the other examples |

— patent US10959427B2, “Attractant of ladybugs, aphid's natural enemy” (Zhejiang University, priority 2018, dated 2021)
